From ChEMBL document CHEMBL1140882, “Pestalofones A-E, bioactive cyclohexanone derivatives from the plant endophytic fungus Pestalotiopsis fici” (Bioorg Med Chem, 2009)
Converted amounts (≈) assume the structure as drawn. Counter-ions that a name gives are not always drawn.

Assays:
Aspergillus fumigatus = assay: Antimicrobial activity against Aspergillus fumigatus ATCC 10894; assay type: functional, organism-based
[1] = system: Human immunodeficiency virus 1; assay: Antiviral activity against HIV1 replication in human C8166 cells by ELISA; assay type: functional, organism-based; settings: Human immunodeficiency virus 1, C8166
[2] = Cytotoxicity against human C8166 cells after 4 days by MTT assay; assay type: cell-based

SMILES	IC50 (Aspergillus fumigatus) [µM]	MIC (Aspergillus fumigatus) [µM]	EC50 [1] [µM]	CC50 at 96 h [2] [µM]
OC(Cn1cncn1)(Cn1cncn1)c1ccc(F)cc1F [FLUCONAZOLE]	7.35	163 (≈ 50 µg/mL)	–	–
CC(C)(C)NC(=O)[C@@H]1CN(Cc2cccnc2)CCN1C[C@@H](O)C[C@@H](Cc1ccccc1)C(=O)N[C@H]1c2ccccc2C[C@H]1O [INDINAVIR SULFATE]	–	–	0.00881	–
CC(C)=C/C=C1\C[C@H](O)[C@@H]2O[C@]2(CC=C(C)C)C1=O [PESTALOFONE A]	–	–	90.4	> 200
C=C(C)/C=C1/C(=C2\C[C@H](O)[C@@H]3O[C@]3(CC=C(C)C)[C@@H]2O)C=C(C)C[C@@]12C[C@H](O)[C@@H]1O[C@]1(CC=C(C)C)C2=O [PESTALOFONE B]	–	–	64	> 200
C=C(C)/C=C1/C(=C2\C[C@H](O)[C@@H]3O[C@]3(CC=C(C)C)C2=O)C=C(C)C[C@@]12C[C@H](O)[C@@H]1O[C@]1(CC=C(C)C)C2=O [PESTALOFONE C]	1.1	35.3 (≈ 18.4 µg/mL)	–	–
COC(=O)c1cc(OC)cc2oc3c(CC(=O)[C@@]4(O)C[C@H](O)[C@@H]5O[C@]5(CC=C(C)C)[C@@H]4O)c(C)c(CC(C)=O)c(O)c3c(=O)c12 [PESTALOFONE E]	0.9	31.2 (≈ 19.5 µg/mL)	93.7	> 200
